We go through seven compounds from patent publication US10066238B2, “Methods for producing antibodies” (priority 2013, dated 2018).

In test [1] the test system is Q769.h5 pseudovirus (clade A). Description: HIV-1 neutralization assay (Env-pseudotyped virus, Luc reporter). The test is classed as cell-based.
The subject of test [2] is SF162 pseudovirus (clade B). Described as above. Format: cell-based.
The test system of test [3] is SS1196.1 pseudovirus (clade B). Described as above. The test is classed as cell-based.
Test [4] concerns Du156 pseudovirus (clade C). The test is described as above. The test is classed as cell-based.
Test [5] addresses recombinant hemagglutinin (HA) (A/New Caledonia/20/99). Description: SPR analysis of captured CR6261. Particulars: HA as analyte, bivalent analyte kinetics fit, read-out: equilibrium dissociation constant, KD. Format: binding, influenza H1N1. For orientation: SPR reads the build-up and loss of mass on a sensor chip optically.
The test system of a further test is HIV-1 BaL. Particulars: topical gel formulation; CCR5-using HIV-1 BaL; Veselinovic, et al.; cited from earlier work.
The subject of test [6] is Q769.h5 pseudovirus (clade A). Conditions: reported by Wu et al. (16); cited from earlier work.
For test [7], the system named is SF162 pseudovirus (clade B). Particulars: reported by Wu et al. (16); cited from earlier work.
Test [8] has as its system Du156 pseudovirus (clade C). Particulars: reported by Wu et al. (16); cited from earlier work.
The next test deals with FcγRI (Homo sapiens, UniProt P12314). The experiment in a line: FcγRI binding in ELISA and in flow cytometry. Conditions: data not shown. Background: ELISA stands for enzyme-linked immunosorbent assay.
FcγRI, sequence (P12314 16-374, species assumed): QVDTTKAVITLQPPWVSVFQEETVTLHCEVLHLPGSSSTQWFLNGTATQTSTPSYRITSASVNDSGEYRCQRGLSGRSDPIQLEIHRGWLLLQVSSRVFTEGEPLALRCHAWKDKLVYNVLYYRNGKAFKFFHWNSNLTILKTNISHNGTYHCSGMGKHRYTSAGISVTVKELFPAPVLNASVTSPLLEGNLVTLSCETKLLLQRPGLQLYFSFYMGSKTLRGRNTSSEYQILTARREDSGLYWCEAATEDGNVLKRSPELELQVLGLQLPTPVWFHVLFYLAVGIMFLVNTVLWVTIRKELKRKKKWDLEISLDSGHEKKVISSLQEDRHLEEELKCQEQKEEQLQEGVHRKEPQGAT
[9] abbreviates: TZM-b1 cells, TFV concentration in combination, mean ± SEM, read-out: IC50 in a respective combination with VRC01p.
Where [10] appears, read: TZM-b1 cells, TFV, mean ± SEM, read-out: IC50 when used individually.
[11] abbreviates: TZM-b1 cells, GRFT, MVC concentration in combination, mean ± SEM, read-out: IC50 in a respective combination with VRC01p.
Where [12] appears, read: TZM-b1 cells, GRFT, MVC, mean ± SEM, read-out: IC50 when used individually.
Where [13] appears, read: read-out: IC50 in a respective combination with VRC01p, TZM-b1 cells, GRFT, MVC concentration in combination, mean ± SEM.
Where [14] appears, read: read-out: IC50 when used individually, TZM-b1 cells, GRFT, MVC, mean ± SEM.

Read-outs that look alike come from different tables or passages of the source.

As for `C[C@H](Cn1cnc2c(N)ncnc21)OCP(=O)(O)O` [TFV, tenofovir], the IC50 came out at 2090 ± 390 nM in test [1] (setting [9]); 21200 ± 3530 nM in test [1] (setting [10]); 880 ± 400 nM in test [2] (setting [9]); 2700 ± 1020 nM in [2] (setting [10]); 1920 ± 340 nM in test [3] (setting [9]); 7650 ± 2390 nM in test [3] (setting [10]). Further, the IC50 amounted to 60 nM in test [4] (setting [9]) and 7140 ± 1910 nM in test [4] (setting [10]). Also, the “dose reduction index (DRI) in a respective combination with VRC01p” value (from here on “dose reduction index (DRI)”) in test [1] (mean ± SEM) is listed as 8.40 ± 1.41; in test [2] (mean ± SEM), 2.10 ± 0.34; in test [3] (mean ± SEM), 3.76 ± 0.68; in test [4] (mean ± SEM), 3.01 ± 0.65.

For the compound “CR6261: anti-influenza bnMAb CR6261 IgG1 (PDB ID: 3GBM) expressed in N. benthamiana”, the Kd in [5] came to 0.055 ± 0.0036 nM.

Regarding “VRC01: CD4-binding site (CD4bs)-specific bnMAb isolated from a slowly progressing HIV-1 infected donor”, the “protection against vaginal challenge” value in the test on HIV-1 BaL was “protected”.

For “VRC01HEK: HEK293F cell-produced bnMAb VRC01”, the “VRC01HEK IC50” value in test [6] was 0.084 µg/mL; in test [7], 0.139 µg/mL; in test [8] it was 0.089 µg/mL.

As for “VRC01p: Nicotiana plant-expressed anti-HIV-1 bnMAb VRC01 IgG1 from the L-(KP6pp)-H construct”, the “binding to FcγRI compared with a human IgG1 isotype control” value in the test with FcγRI was “nearly an order of magnitude less”.

With griffithsin [GRFT], the IC50 in [1] (setting [11]) was 0.79 ± 0.19 nM; in [1] (setting [12]), 12.4 ± 2.88 nM; in [2] (setting [11]), 0.1 ± 0.03 nM; in test [2] (setting [12]), 0.59 ± 0.34 nM; in test [3] (setting [11]), 0.01 ± 0.001 nM; in [3] (setting [12]), 0.04 ± 0.01 nM. Besides, the values for the IC50 in [4] (setting [11]) and in [4] (setting [12]) were 0.003 ± 0.0004 nM and 0.02 ± 0.001 nM, respectively. Further, the “dose reduction index (DRI)” value in test [1] (mean ± SEM) is listed as 11.3 ± 2.95; in [2] (mean ± SEM), 3.19 ± 1.16; in test [3] (mean ± SEM), 2.98 ± 0.72; in test [4] (mean ± SEM), 6.29 ± 0.66.

maraviroc [MVC]: the “dose reduction index (DRI)” value in [1] (mean ± SEM) came to 4.40 ± 0.71; in [2] (mean ± SEM), 4.21 ± 0.25; in [3] (mean ± SEM), 5.06 ± 0.39; in [4] (mean ± SEM), 5.93 ± 0.96. The IC50 was found to be 5.27 ± 1.12 nM in [1] (setting [13]); 29.6 ± 7.75 nM in test [1] (setting [14]); 18.3 ± 7.9 nM in [2] (setting [13]); 54.9 ± 29.3 nM in test [2] (setting [14]); 15.6 ± 8.87 nM in [3] (setting [13]); 96.4 ± 28.5 nM in test [3] (setting [14]). Besides, the IC50 in [4] (setting [13]) worked out at 32.2 ± 11.5 nM; in [4] (setting [14]), 199 ± 40.4 nM.
